{"source": "patent US20060142308A1", "about": "“Synergistic combination comprising roflumilast and formoterol” (Atlanta Pharma AG, priority 2002, published 2006)", "system": "ovalbumin (OVA)-sensitized and OVA-challenged Brown Norway rats", "experiment": "Late inflammatory airway reaction in the ovalbumin-sensitized/-challenged Brown-Norway rat (BAL fluid eosinophils, total cells, protein)", "format": "in vivo", "details": "for Mean % Inhibition of Eosinophils: BAL fluid 48 h after OVA challenge; for Mean % Inhibition of Eosinophils / Mean % Inhibition of Protein: drug 1 h before challenge, p.o., Roflumilast 1.0, Formoterol 3.0, combination 1.0 + 3.0 μmol/kg; for Mean % Inhibition of Protein: cell-free BAL fluid 48 h after OVA challenge", "description": "Late Inflammatory Airway Reaction in the Ovalbumin-Sensitized/-Challenged Brown-Norway Rat\nAnti-inflammatory activity of Roflumilast and formoterol was determined in ovalbumin (OVA)-sensitized and OVA-challenged Brown Norway rats. Sensitization was done by simultaneous injection of Bordetella pertussis suspension i.p. and OVA/AHG suspension s.c. on day 1, 14 and 21. 28 days after start of sensitization, conscious Brown-Norway rats were challenged by inhalation of the aerosolized OVA solution for 1 h (˜20 ml/h). Non-challenged, only sensitized animals were used as baseline control. The drugs (thoroughly mixed with lactose) or the placebo control (lactose) were administered intratracheally (i.t.) as dry powders 1 h before OVA-challenge. 48 h later, OVA-challenged or non-challenged animals were anaesthetized and bronchoalveolar lavage (BAL) was performed using 3×4 ml BAL buffer per animal. The number of total cells and eosinophils in the BAL fluid, and the concentration of protein in the cell-free BAL fluid were determined. Drug-induced relative changes were calculated and statistically analyzed by the Jonckheere Terpstra test."}
{"smiles": "O=C(Nc1c(Cl)cncc1Cl)c1ccc(OC(F)F)c(OCC2CC2)c1", "note": "[Roflumilast]", "values": [{"measurement": "effects on cell infiltration and protein accumulation", "setting": "0.3 μmol/kg i.t.", "value": "did not show any significant effects"}, {"measurement": "Mean % Inhibition of Eosinophils", "value": 0, "unit": "%"}, {"measurement": "Mean % Inhibition of Protein", "value": 15, "unit": "%"}]}
{"smiles": "COc1ccc(CC(C)NCC(O)c2ccc(O)c(NC=O)c2)cc1", "note": "(stereo not drawn) [Formoterol]", "values": [{"measurement": "effects on total cell and eosinophil influx into alveolar space and protein levels in BAL fluid", "setting": "3 μmol/kg i.t., data failed to reach significance", "value": "exhibited inhibitory effects"}, {"measurement": "Mean % Inhibition of Eosinophils", "value": 35, "unit": "%"}, {"measurement": "Mean % Inhibition of Protein", "value": 46, "unit": "%"}]}
